# Experimental data: patent US20220074941A1, “HSP90 COMBINATION THERAPY” (Sloan-Kettering Institute for Cancer Research, priority 2011, published 2022)
# “Also recorded” adds a separate entry of the source.
# Tests used:
# [1] = target: T1, cell surface Hsp90 in MV4-11 leukemia cells (Homo sapiens, UniProt P07900); assay: Flow cytometry detection of cell surface Hsp90 with PU-H71-biotin; type: cell-based; conditions: MV4-11 cells, 2 h at 37° C., SA-PE staining
# T1 construct: specifically detect Hsp90 when expressed on the cell surface; endogenous in cells; host or cells: MV4-11 live cells
# Description: FIGS. 29a and 29b. A) Hsp90-containing protein complexes from the brains of JNPL3 mice, an Alzheimer's disease transgenic mouse model, isolated through chemical precipitation with beads containing a streptavidin-immobilized PU-H71-biotin construct or control streptavidin-immobilized D-biotin. Aberrant tau species are indicated by arrow. c1, c2 and s1, s2, cortical and subcortical brain homogenates, respectively, extracted from 6-month-old female JNPL3 mice (Right). Western blot analysis of brain lysate protein content (Left). B) Cell surface Hsp90 in MV4-11 leukemia cells as detected by PU-H71-biotin. The data are consistent with those obtained from multiple repeat experiments (n 2′: 2).
# Cells were then analyzed using the BD-LSRII flow cytometer. Mean fluorescence intensity (MFI) was used to calculate the binding of PU-H71-biotin to cells and values were normalized to the MFI of untreated cells stained with SA-PE.
# [2] = test system: Hsp90 from SKBr3 cellular extracts; assay: Fluorescence polarization (FP) competition assay with GM-cy3B; type: binding; conditions: FP competition with GM-cy3B, SKBr3 lysate, 4° C. for 24 h; read-out: IC50 (nM), binding affinity for Hsp90 from SKBr3 cellular extracts
# Description: The attachment of small molecules to a solid support is a very useful method to probe their target and the target's interacting partners. […] Perhaps the most crucial aspects in designing such chemical probes are determining the appropriate site for attachment of the small molecule ligand, and designing an appropriate linker between the molecule and the solid support. Our strategy to design Hsp90 chemical probes entails several steps. First, in order to validate the optimal linker length and its site of attachment to the Hsp90 ligand, the linker-modified ligand was docked onto an appropriate X-ray crystal structure of Hsp90α. Second, the linker-modified ligand was evaluated in a fluorescent polarization (FP) assay that measures competitive binding to Hsp90 derived from a cancer cell extract. […] These steps are important to ensure that the solid-support immobilized molecules maintain a strong affinity for Hsp90. Finally, the linker-modified small molecule was attached to the solid support, and its interaction with Hsp90 was validated by incubation with an Hsp90-containing cell extract.
# Briefly, FP measurements were performed on an Analyst GT instrument (Molecular Devices, Sunnyvale, Calif.). […] Drugs were added in triplicate wells. […] The assay plate was incubated on a shaker at 4° C. for 24 h and the FP values in mP were measured. The fraction of tracer bound to Hsp90 was correlated to the mP value and plotted against values of competitor concentrations. […] All experimental data were analyzed using SOFTmax Pro 4.3.1 and plotted using Prism 4.0 (Graphpad Software Inc., San Diego, Calif.).
# [3] = test system: OCI-LYI, OCI-LY7, Farage and SUDHL6 DLBCL cells; assay: Combination of PU-H71 with SYK inhibitor in DLBCL cells; type: cell-based
# DLBCL cell lines = conditions: literature; cited from earlier work
# Mia-PaCa-2 cells = assay: Alamar Blue cell growth assay; type: cell-based, human; conditions: Mia-PaCa-2, 72 h
# Description: (§1) FIGS. 7a-7g. PU-H71 identified proteins and networks are those important for the malignant phenotype. (a) K562 cells were treated for 72 h with the indicated inhibitors and cell growth analyzed by the Alamar Blue assay. Data are presented as means±SD (n=3). (b) Sequential chemical-precipitations, as indicated, were conducted in K562 extracts with the PU-beads at the indicated frequency. Proteins in the pull-downs and in the remaining supernatant were analyzed by WB. (c) The effect of CARMI knock-down on cell viability using Tryptan blue (left) or Acridine orange/Ethidium bromide (right) stainings was evaluated in K562 cells. (d) The expression of select potential Hsp90-interacting proteins was analyzed by WB in K562 leukemia and Mia-PaCa-2 pancreatic cancer cells. […] Proteins in the pull-downs were analyzed by WB. (g) The effect of select inhibitors on Mia-PaCa-2 cell growth was analyzed as in panel (a).
# (§2) Viability assessment in K562 cells untransfected or transfected with CARMI shRNA or scramble was performed using Trypan Blue. […] Apoptosis analysis was assessed using fluorescence microscopy by mixing 2 μL of acridine orange (100 μg/mL), 2 μL of ethidium bromide (100 μg/mL), and 20 μL of the cell suspension. A minimum of 200 cells was counted in at least five random fields. […] Results were analyzed using the Softmax Pro and the GraphPad Prism softwares. […]
# K562 cells [4] = assay: Western blot of proteins in treated K562 cells; type: cell-based; conditions: PU-H71 5 μM or Gleevec 0.5 μM, time course
# Description: FIGS. 5a-5f. […] (a) Hsp90 complexes in K562 extracts were isolated by precipitation with H9010, a non-specific IgG, or by PU-H71- or Control-beads. Control beads contain ethanolamine, an Hsp90-inert molecule. Proteins in pull-downs were analyzed by Western blot. (b,c) Single or sequential immuno- and chemical-precipitations, as indicated, were conducted in K562 extracts with H9010 and PU-beads at the indicated frequency and in the shown sequence. Proteins in the pull-downs and in the remaining supernatant were analyzed by WB. NS=non-specific. […] (e) Expression of proteins in Hsp70-knocked-down cells was analyzed by Western blot (left) and changes in protein levels presented in relative luminescence units (RLU) (right). Control=scramble siRNA. […] Proteins in the pull-downs and in the remaining supernatant were analyzed by Western blot. […]
# FIGS. 8a-8h. […] Proteins in the pull-downs and in the remaining supernatant were analyzed by WB. […] Proteins were analyzed by WB (upper), quantified by densitometry and graphed against treatment time (lower). […] (f) Quantitative chromatin immunoprecipitation assays (QChIP) performed with STAT5 or Hsp90 antibodies vs. IgG control for two known STAT5 target genes (CCND2 and […]).
# Protein concentrations were determined using BCA kit (Pierce) according to the manufacturer's instructions. […]
# K562 cells [5] = assay: Alamar Blue cell growth assay; type: cell-based; conditions: K562, 72 h
# Description: as §1, §2
# K562 CML cells = assay: Drug combination with PU-H71 in CML cells; type: cell-based
# Description: Since single agent therapy is not likely to be curative in cancer, it is necessary to design rational combinatorial therapy approaches. Proteomic identification of oncogenic Hsp90-scaffolded signaling networks may identify additional oncoproteins that could be further targeted using specific small molecule inhibitors.
# DLBCL patients = conditions: Phase II; cited from earlier work
# [6] = test system: patients with advanced pancreatic cancer; conditions: cited from earlier work
# [7] = test system: MDA-MB-468 breast cancer cells; assay: Clonogenic survival, combination with PU-H71; type: cell-based; conditions: MDA-MB-468, combination with PU-H71
# Description: (§3) Specifically, among the Hsp90-regulated pathways identified in the K562 CML cells, MDA-MB-468 breast cancer cells and the Mia-PaCa-2 pancreatic cancer cells are several involved in DNA damage, replication and repair response and/or homologous recombination (Tables 3, 5a-5f). Hsp90 inhibition may synergize or be additive with agents that act on DNA damage and/or homologous recombination (i.e. potentiate DNA damage sustained post treatment with IR/chemotherapy or other agents, such as PARP inhibitors that act on the proteins that are important for the repair of double-strand DNA breaks by the error-free homologous recombinational repair pathway).
# [8] = test system: HCC1937 breast cancer cells; assay: Clonogenic survival, combination with PU-H71; type: cell-based
# Description: as §3
structure (smiles),measurement,setting,value
Nc1ncnc2c1nc(Sc1cc3c(cc1I)OCO3)n2CCCNCCOCCOCCOCCNC(=O)CCCC[C@@H]1SC[C@@H]2NC(=O)N[C@@H]21 [Compound 7],detection of Hsp90 on the cell surface,[1],can detect Hsp90 expression on the surface of leukemia cells
same,IC50,[2],67.1 nM
COc1cc(Nc2ncc(F)c(Nc3ccc4c(n3)NC(=O)C(C)(C)O4)n2)cc(OC)c1OC [Compound R406],efficacy of combination with PU-H71 versus each inhibitor alone,[3],synergizes; also recorded: more efficacious
same,effect on DLBCL cell lines,DLBCL cell lines,blocks proliferation and induces apoptosis
Cc1ccc(NC(=O)c2ccc(CN3CCN(C)CC3)cc2)cc1Nc1nccc(-c2cccnc2)n1 [Gleevec],effect on cell growth,Mia-PaCa-2 cells,toxic only to K562 cells
same,STAT5 phosphorylation (p-STAT5 levels),K562 cells [4],rapidly decreased
same,effect on cell growth,K562 cells [5],toxic only to K562 cells
COc1ccc(S(=O)(=O)N(CCO)c2ccccc2CN(C)C/C=C/c2ccc(Cl)cc2)cc1 [KN93],drug interaction with Hsp90 inhibitor PU-H71,K562 CML cells,synergize
CC(C)n1nc(-c2cc3cc(O)ccc3[nH]2)c2c(N)ncnc21 [PP242],effect on cell growth,Mia-PaCa-2 cells,toxic to both cells
same,effect on cell growth,K562 cells [5],toxic to both cells
CO[C@H]1C[C@@H]2CC[C@@H](C)[C@@](O)(O2)C(=O)C(=O)N2CCCC[C@H]2C(=O)O[C@H]([C@H](C)C[C@@H]2CC[C@@H](OCCO)[C@H](OC)C2)CC(=O)[C@H](C)/C=C(\C)[C@@H](O)[C@@H](OC)C(=O)[C@H](C)C[C@H](C)/C=C/C=C/C=C/1C [everolimus],ORR,DLBCL patients,35%
Nc1ccn([C@@H]2O[C@H](CO)[C@@H](O)C2(F)F)c(=O)n1 [gemcitabine],median survival,[6],approximately 6 months
O=C(c1cc(Cc2n[nH]c(=O)c3ccccc23)ccc1F)N1CCN(C(=O)C2CC2)CC1 [olaparib],drug interaction with PU-H71 in inhibiting clonogenic survival,[7],synergizes
same,drug interaction with PU-H71 in inhibiting clonogenic survival,[8],synergizes
